Where two headings read alike, the source gives them in different places.
Columns and labels:
[1] = test system: oocyte-containing follicles; experiment: In-vivo HDAC suppression with Trichostatin A, counts of oocyte-containing follicles; parameters: species or system mice
Text: (§1) Age-specified or timed-pregnant wild-type C57BL/6 and CD1 female mice were obtained from Charles River Laboratories, whereas AKR/J mice were obtained from Jackson Laboratories. Ovaries were fixed in 0.34N glacial acetic acid, 10% formalin, and 28% ethanol, paraffin embedded, and serially sectioned (8 μm). The sections were aligned in order on glass microscope slides, and stained with hematoxylin and picric methyl blue. The number of non-atretic or atretic primordial, primary, and preantral follicles was then determined. Primordial follicles were identified as having a compact oocyte surrounded by a single layer of flattened granulosa cells, while primary follicles were identified as having an enlarged oocyte surrounded by a single layer of cuboidal granulosa cells. Intermediate-stage follicles (compact or enlarged oocyte with a single layer of mixed flattened and cuboidal granulosa cells) were scored as primary. Preantral follicles were identified as having an enlarged oocyte surrounded by at least a partial or complete second layer of cuboidal granulosa cells, but no more than four complete layers of cuboidal granulosa cells. Only those follicles containing an oocyte with a clearly visible nucleus were scored. Follicles at the primordial, primary and preantral (immature) stages of development were scored as atretic if the oocyte was degenerating (convoluted, condensed) or fragmented. Grossly atretic follicles lacking oocyte remnants were not included in the analyses. Given that this procedure sampled one-fifth of the entire ovarian volume, the total number of follicles per ovary (healthy or atretic) was then estimated by multiplying the cumulative counts for each ovary by a correction factor of five (Zuckerman, S. (1951) Recent Prog. Horm. Res. 6: 63-108; Tilly, J. L. (2003) Reprod. Biol. Endocrinol. 1:1-11). A single trained ovarian histologist in a blinded fashion conducted all counts, and two other members of the group periodically evaluated random samples to verify accuracy and reproducibility of the data.
Animals were sacrificed 24 hours post-injection, histological preparations of ovaries were prepared, and oocyte-containing follicles were counted per standard laboratory procedures (see Example 1). Treatment with TSA caused a 53% increase in the number of total healthy immature oocyte-containing follicles per ovary when compared with ovaries of control mice given the vehicle treatment. Not only was the resting (primordial) pool of follicles increased by 42%, but also the number of early growing (primary) follicles was increased (FIG. 7c).

primordial follicles = test system: primordial follicles; parameters: species or system mice; conditions: mouse, in vivo
Text: as §1, with “Given that this procedure sampled one-fifth of the entire ovarian volume, the total number of follicles per ovary (healthy or atretic) was then estimated by multiplying the cumulative counts for each ovary by a correction factor of five (Zuckerman, S. (1951) Recent Prog. Horm. Res. 6: 63-108; Tilly, J. L. (2003) Reprod. Biol. Endocrinol. 1:1-11).” left out, “data. […]” for “data.”
To clarify whether loss of primordial follicles observed in busulfan-treated females (FIG. 5a) results from toxicity to existing oocytes, ovaries were collected from female mice at multiple points during and after the busulfan dosing regimen described above, and they were analyzed for the incidence of primordial follicle atresia. […]

ovarian function = conditions: cited from earlier work
[2] = test system: primordial and early growing follicles (oocytes); experiment: Doxorubicin-synchronized oocyte death in adult female mice, germ cell dynamics; assay type: in vivo
Procedure: The existence of mammalian female germline stem cells implies an inherent capacity of the ovaries to generate, or regenerate following an insult, new stockpiles of resting (primordial) oocyte-containing follicles in a regulated fashion. To address this issue directly, adult female mice were injected with doxorubicin to synchronize oocyte death (Perez, G. I. et al, (1997) Nature Med. 3, 1228-32), and ovaries were collected at multiple intervals after drug exposure to assess germ cell dynamics.

[3] = prepubertal female mice, single i.p. injection 10 mg/kg, 24 hours post-injection

Question: Which “increase in primordial follicle numbers” value ([1]; female mice at 240 days of age, within 24 h (data not shown)) does the source give for `CC(/C=C/C(=O)NO)=C\[C@@H](C)C(=O)c1ccc(N(C)C)cc1` [TSA, Trichostatin A] here?
Answer: Its value is 89%.

Question: What about the “increase in healthy immature follicles (number)” value ([1]; prepubertal (13-day old) female mice, 10 mg/kg, 24 hours) of the same molecule?
Answer: Its value is “more than 1,600”.

Question: What about the “increase in the number of total healthy immature oocyte-containing follicles per ovary versus vehicle” value [1, 3] of the same molecule?
Answer: Its value is 53%.

Question: And the “increase of the resting (primordial) pool of follicles” value [1, 3]?
Answer: The value was 42%.

Question: And the “number of early growing (primary) follicles” value [1, 3]?
Answer: The value was “increased”.

Question: For `CS(=O)(=O)OCCCCOS(C)(=O)=O` [busulfan], which “plateau number of atretic primordial follicles” value (primordial follicles; female, 20 mg/kg, 5 days) is on record?
Answer: Its value is 46 per ovary.

Question: And the “reduction in the resting (primordial) oocyte pool” value (primordial follicles; female, 3 weeks)?
Answer: Its value is 95%.

Question: What about the “ratio of primordial to primary follicles, busulfan versus vehicle” value (primordial follicles) of the same molecule?
Answer: The value was “No significant change”.

Question: And the “POF, cases of patients” value (ovarian function; in vivo)?
Answer: The value was 19 of 19.

Question: What about the “hypogonadism indicative of premature ovarian failure (POF), cases of patients” value (ovarian function; in vivo) of the same molecule?
Answer: Its value is 20 of 21.

Question: What about the “ovarian damage requiring hormonal replacement, cases of patients” value (ovarian function; in vivo) of the same molecule?
Answer: Its value is 4 of 4.

Question: With `O=P1(N(CCCl)CCCl)NCCCO1` (centres unmarked) [cyclophosphamide] as the molecule, how does the “POF, cases of patients” value (ovarian function; Grigg et al. 2000: both agents ages 14-57, median=38, cyclophosphamide alone ages 13-58, median=28) read?
Answer: The value was 47 of 103.

Question: For `COc1cccc2c1C(=O)c1c(O)c3c(c(O)c1C2=O)C[C@@](O)(C(=O)CO)C[C@@H]3O[C@H]1C[C@H](N)[C@H](O)[C@H](C)O1` [doxorubicin], which “primordial and total immature follicle pools” value ([2]; between 24 and 36 h post-treatment (data not shown)) is on record?
Answer: Its value is “spontaneous regeneration”.

Question: What about the “primordial and early growing follicles (oocytes)” value ([2]; within the first 24 h after treatment (data not shown)) of the same molecule?
Answer: Its value is “rapid and extensive loss”.
